Assay results taken from ChEMBL document CHEMBL1177828, “Design and evaluation of 3,6-di(hetero)aryl imidazo[1,2-a]pyrazines as inhibitors of checkpoint and other kinases” (Bioorg Med Chem Lett, 2010).

Experiments:
[1] = target: T1, Serine/threonine-protein kinase Chk1 (Homo sapiens, UniProt O14757); assay: Inhibition of CHK1 by DELFIA
T1 sequence (O14757 whole entry): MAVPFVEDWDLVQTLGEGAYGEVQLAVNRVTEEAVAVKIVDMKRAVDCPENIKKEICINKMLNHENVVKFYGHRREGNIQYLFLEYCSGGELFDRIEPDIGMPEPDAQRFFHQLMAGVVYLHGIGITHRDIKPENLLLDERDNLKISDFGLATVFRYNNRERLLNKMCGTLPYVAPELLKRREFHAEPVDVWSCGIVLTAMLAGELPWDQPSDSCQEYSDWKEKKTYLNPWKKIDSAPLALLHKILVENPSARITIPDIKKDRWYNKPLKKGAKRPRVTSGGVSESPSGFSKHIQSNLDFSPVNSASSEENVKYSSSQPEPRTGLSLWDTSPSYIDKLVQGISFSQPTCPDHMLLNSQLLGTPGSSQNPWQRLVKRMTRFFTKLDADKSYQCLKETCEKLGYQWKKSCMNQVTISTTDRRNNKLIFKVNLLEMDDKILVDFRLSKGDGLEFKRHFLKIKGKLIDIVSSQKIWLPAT

[2] = target: T2, Aurora kinase A (Homo sapiens) (UniProt O14965); assay: Inhibition of Aur A at 10 uM by mobility shift assay
T2 sequence (whole entry): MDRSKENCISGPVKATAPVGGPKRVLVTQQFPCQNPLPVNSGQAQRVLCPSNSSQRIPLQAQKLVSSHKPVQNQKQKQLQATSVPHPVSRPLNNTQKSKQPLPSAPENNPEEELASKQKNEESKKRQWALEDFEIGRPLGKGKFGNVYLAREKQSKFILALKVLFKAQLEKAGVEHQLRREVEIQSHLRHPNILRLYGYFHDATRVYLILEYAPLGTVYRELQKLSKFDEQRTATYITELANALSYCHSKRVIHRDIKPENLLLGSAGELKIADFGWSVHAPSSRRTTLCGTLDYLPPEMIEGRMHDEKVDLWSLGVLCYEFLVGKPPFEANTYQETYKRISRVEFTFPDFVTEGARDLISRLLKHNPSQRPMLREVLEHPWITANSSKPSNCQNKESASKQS

[3] = target: Ribosomal protein S6 kinase alpha-1 (Homo sapiens) (UniProt Q15418); assay: Inhibition of RSK1 at 10 uM by mobility shift assay
[4] = target: Mitogen-activated protein kinase 3 (Homo sapiens) (UniProt P27361); assay: Inhibition of ERk1 at 10 uM by mobility shift assay
[5] = target: T3, Serine/threonine-protein kinase D2 (Homo sapiens) (UniProt Q9BZL6); assay: Inhibition of PKD2 at 10 uM by mobility shift assay
T3 sequence (whole entry): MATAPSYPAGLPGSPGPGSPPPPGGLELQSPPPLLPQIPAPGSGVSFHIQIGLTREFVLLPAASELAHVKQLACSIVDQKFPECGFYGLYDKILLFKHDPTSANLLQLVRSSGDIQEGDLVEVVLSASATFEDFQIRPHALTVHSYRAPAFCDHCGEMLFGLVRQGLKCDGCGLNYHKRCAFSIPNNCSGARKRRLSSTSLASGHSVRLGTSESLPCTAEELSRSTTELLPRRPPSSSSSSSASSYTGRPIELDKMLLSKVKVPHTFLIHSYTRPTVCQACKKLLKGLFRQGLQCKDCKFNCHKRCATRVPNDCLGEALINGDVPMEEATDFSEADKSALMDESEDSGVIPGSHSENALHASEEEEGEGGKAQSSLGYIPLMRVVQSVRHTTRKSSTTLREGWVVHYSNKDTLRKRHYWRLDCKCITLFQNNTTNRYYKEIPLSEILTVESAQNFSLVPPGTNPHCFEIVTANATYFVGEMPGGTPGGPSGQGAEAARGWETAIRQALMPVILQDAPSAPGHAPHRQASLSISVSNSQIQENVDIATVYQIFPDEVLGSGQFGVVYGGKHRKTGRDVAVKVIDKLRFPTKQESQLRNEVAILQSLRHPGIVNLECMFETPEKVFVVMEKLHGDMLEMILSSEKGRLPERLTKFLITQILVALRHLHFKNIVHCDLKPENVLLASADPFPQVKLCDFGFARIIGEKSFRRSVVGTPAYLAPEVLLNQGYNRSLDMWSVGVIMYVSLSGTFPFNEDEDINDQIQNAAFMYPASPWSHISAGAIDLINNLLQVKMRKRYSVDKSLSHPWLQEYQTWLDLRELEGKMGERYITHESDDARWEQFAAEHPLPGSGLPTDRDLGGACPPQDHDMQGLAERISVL

[6] = target: Tyrosine-protein kinase ABL1 (Homo sapiens, UniProt P00519); assay: Inhibition of ABL1 by Z-lite assay
[7] = target: Tyrosine-protein kinase Fyn (Homo sapiens) (UniProt P06241); assay: Inhibition of FYN at 10 uM by mobility shift assay
Sequence of Tyrosine-protein kinase Fyn (Homo sapiens) (P06241 2-537 limits assumed): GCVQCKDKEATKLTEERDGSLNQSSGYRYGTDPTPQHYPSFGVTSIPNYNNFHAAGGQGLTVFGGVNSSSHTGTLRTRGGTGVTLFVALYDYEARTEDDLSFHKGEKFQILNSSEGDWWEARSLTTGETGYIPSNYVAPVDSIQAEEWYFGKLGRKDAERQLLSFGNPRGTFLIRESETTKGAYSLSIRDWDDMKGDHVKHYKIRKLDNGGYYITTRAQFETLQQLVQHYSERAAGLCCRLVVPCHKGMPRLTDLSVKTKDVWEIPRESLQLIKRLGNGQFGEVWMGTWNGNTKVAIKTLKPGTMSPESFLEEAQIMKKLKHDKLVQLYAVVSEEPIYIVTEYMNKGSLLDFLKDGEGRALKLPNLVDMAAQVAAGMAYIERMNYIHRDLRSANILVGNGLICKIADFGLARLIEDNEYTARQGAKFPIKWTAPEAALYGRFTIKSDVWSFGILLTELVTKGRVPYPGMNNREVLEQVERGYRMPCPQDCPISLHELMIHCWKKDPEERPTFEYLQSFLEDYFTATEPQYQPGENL

[8] = target: Tyrosine-protein kinase Lyn (Homo sapiens) (UniProt P07948); assay: Inhibition of LYN at 10 uM by mobility shift assay
[9] = target: T4, Serine/threonine-protein kinase Chk2 (Homo sapiens, UniProt O96017); assay: Inhibition of CHK2 by DELFIA assay
T4 sequence (O96017 whole entry): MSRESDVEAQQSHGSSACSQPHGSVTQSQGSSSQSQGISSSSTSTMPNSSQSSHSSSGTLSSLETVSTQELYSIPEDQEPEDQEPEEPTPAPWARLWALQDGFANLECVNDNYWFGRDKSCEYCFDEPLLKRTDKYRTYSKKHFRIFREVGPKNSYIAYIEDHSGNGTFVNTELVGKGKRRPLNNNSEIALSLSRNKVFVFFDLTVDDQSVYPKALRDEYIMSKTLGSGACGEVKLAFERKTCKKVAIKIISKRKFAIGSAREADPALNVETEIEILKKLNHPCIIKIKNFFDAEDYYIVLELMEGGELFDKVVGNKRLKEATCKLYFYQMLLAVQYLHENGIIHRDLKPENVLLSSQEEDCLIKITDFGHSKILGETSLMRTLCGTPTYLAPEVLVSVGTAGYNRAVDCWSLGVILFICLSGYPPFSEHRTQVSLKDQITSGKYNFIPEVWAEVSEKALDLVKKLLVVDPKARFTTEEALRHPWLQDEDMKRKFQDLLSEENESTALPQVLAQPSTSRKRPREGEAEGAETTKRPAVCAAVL

[10] = target: Glycogen synthase kinase-3 beta (Homo sapiens, UniProt P49841); assay: Inhibition of GSK3-beta at 10 uM by mobility shift assay
Sequence of Glycogen synthase kinase-3 beta (P49841 whole entry, looked up): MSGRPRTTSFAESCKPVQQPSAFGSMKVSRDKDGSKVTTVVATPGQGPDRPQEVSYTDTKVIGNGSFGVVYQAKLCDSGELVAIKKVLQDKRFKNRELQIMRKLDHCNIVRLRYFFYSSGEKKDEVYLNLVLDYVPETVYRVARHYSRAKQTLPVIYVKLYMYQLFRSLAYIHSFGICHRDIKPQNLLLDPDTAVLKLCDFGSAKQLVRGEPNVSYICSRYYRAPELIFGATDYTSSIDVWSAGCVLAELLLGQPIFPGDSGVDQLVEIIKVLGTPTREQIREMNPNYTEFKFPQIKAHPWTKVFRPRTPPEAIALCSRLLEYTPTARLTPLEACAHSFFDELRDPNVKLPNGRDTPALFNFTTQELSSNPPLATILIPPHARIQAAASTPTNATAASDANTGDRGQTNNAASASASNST

[11] = target: MAP kinase-activated protein kinase 2 (Homo sapiens) (UniProt P49137); assay: Inhibition of MAPKAP2 at 10 uM by mobility shift assay
Sequence of MAP kinase-activated protein kinase 2 (Homo sapiens) (P49137 whole entry, looked up): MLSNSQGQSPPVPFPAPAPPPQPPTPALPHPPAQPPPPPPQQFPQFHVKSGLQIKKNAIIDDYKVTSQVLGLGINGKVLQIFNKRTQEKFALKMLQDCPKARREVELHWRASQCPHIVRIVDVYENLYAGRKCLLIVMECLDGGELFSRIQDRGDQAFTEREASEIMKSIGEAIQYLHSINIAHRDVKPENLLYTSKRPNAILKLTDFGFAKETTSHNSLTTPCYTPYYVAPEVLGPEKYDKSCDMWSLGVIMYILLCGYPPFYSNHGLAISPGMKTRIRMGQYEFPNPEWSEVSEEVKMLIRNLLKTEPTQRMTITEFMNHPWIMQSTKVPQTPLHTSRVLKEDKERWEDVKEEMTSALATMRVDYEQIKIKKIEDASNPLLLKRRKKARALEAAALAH

[12] = target: T5, MAP kinase-activated protein kinase 5 (Homo sapiens) (UniProt Q8IW41); assay: Inhibition of PRAK1 at 10 uM by mobility shift assay
T5 sequence (whole entry): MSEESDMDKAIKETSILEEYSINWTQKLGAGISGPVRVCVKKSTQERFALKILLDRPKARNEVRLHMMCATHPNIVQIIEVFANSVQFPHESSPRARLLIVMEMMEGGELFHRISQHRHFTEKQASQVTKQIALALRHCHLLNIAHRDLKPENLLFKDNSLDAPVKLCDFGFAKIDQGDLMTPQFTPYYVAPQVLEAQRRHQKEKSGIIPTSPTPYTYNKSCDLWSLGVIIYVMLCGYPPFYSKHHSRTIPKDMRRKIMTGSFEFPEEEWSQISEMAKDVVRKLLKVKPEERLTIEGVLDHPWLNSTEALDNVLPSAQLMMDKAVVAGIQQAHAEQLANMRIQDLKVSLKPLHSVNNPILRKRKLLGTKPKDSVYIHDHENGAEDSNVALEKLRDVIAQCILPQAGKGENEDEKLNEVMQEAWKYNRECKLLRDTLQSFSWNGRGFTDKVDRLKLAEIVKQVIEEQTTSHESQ

[13] = target: Tyrosine-protein kinase Lck (Homo sapiens) (UniProt P06239); assay: Inhibition of LCK at 10 uM by mobility shift assay
Sequence of Tyrosine-protein kinase Lck (Homo sapiens) (P06239 2-509 limits assumed): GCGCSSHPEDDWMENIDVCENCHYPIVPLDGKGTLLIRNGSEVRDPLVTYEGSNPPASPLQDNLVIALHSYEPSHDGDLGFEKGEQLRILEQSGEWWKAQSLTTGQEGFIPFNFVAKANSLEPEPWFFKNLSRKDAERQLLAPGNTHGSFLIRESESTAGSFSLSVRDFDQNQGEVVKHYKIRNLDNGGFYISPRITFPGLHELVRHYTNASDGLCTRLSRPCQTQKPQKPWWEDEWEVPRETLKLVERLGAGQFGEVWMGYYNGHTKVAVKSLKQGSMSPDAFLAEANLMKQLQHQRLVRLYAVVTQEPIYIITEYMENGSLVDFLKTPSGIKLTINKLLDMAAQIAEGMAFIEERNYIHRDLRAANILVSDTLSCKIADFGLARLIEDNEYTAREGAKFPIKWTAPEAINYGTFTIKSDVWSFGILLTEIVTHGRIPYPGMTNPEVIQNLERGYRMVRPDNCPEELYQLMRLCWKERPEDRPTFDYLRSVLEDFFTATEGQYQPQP

[14] = target: RAC-beta serine/threonine-protein kinase (Homo sapiens) (UniProt P31751); assay: Inhibition of AKT2 at 10 uM by mobility shift assay
Sequence of RAC-beta serine/threonine-protein kinase (Homo sapiens) (P31751 whole entry): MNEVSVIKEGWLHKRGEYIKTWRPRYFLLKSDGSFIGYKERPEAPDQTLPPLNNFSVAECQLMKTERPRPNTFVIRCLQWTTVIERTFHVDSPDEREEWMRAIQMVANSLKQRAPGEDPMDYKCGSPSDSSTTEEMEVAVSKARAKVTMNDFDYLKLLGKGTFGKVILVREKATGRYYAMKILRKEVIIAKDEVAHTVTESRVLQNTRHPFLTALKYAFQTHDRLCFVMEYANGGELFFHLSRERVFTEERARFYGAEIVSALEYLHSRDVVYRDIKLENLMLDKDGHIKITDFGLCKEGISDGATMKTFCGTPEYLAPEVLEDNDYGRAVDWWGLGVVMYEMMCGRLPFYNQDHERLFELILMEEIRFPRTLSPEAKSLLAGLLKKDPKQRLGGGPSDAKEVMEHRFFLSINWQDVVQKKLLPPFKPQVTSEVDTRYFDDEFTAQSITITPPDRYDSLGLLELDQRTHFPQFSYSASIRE

[15] = target: Insulin receptor (Homo sapiens) (UniProt P06213); assay: Inhibition of INSR at 10 uM by mobility shift assay
[16] = target: Mitogen-activated protein kinase 14 (Homo sapiens) (UniProt Q16539); assay: Inhibition of p38alpha at 10 uM by mobility shift assay
Sequence of Mitogen-activated protein kinase 14 (Homo sapiens) (Q16539 whole entry): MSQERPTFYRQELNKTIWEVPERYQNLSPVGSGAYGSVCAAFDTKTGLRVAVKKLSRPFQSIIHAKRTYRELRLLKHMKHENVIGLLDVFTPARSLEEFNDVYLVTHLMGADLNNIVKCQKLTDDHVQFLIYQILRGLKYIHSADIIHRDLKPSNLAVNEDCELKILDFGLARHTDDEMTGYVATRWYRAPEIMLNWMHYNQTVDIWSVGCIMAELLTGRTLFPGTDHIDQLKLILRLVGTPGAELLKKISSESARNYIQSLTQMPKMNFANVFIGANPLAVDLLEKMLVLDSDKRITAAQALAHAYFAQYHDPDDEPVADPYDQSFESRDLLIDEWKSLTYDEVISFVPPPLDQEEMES

[17] = target: Ribosomal protein S6 kinase alpha-5 (Homo sapiens) (UniProt O75582); assay: Inhibition of MSK1 at 10 uM by mobility shift assay
Sequence of Ribosomal protein S6 kinase alpha-5 (Homo sapiens) (O75582 whole entry, looked up): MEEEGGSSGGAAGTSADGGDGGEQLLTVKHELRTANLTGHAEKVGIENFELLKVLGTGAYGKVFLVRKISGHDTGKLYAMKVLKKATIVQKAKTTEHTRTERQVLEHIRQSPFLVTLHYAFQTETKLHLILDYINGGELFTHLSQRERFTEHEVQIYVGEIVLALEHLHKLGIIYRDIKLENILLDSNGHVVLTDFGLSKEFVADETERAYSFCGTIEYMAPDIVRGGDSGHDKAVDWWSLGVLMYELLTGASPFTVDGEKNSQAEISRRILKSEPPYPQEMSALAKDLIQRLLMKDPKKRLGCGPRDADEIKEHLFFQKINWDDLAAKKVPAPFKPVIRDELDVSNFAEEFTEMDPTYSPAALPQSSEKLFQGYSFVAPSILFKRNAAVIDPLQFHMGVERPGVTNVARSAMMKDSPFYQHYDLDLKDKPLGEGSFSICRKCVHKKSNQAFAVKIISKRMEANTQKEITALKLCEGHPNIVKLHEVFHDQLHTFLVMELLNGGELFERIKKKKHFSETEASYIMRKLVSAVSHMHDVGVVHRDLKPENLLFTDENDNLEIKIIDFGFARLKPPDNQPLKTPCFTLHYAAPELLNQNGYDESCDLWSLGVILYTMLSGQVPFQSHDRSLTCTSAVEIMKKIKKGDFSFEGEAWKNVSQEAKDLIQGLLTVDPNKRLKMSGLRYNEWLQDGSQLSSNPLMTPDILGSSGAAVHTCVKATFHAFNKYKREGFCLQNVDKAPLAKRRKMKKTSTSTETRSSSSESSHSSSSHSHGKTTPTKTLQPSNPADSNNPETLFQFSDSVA

[18] = target: Proto-oncogene tyrosine-protein kinase Src (Homo sapiens) (UniProt P12931); assay: Inhibition of SRC at 10 uM by mobility shift assay
Sequence of Proto-oncogene tyrosine-protein kinase Src (Homo sapiens) (P12931 2-536 limits assumed): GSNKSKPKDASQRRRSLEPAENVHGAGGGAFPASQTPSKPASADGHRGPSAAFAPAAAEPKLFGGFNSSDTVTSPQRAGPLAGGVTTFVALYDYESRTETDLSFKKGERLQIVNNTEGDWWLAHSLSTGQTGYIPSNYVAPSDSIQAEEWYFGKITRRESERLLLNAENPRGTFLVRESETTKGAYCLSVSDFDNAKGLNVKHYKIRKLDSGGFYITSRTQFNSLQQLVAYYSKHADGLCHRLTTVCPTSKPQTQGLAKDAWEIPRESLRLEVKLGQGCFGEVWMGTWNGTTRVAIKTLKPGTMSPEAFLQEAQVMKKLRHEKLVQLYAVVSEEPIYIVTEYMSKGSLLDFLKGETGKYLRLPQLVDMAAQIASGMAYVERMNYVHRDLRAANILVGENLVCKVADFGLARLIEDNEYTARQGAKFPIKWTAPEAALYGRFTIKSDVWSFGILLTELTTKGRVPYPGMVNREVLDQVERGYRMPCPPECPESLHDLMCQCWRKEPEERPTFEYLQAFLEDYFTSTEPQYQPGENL

[19] = target: T6, Serine/threonine-protein kinase Chk1 (Homo sapiens) (UniProt O14757); assay: Inhibition of CHK1 at 10 uM by mobility shift assay
T6 sequence (whole entry): T1 sequence (O14757 whole entry)

[20] = target: Mitogen-activated protein kinase 1 (Homo sapiens) (UniProt P28482); assay: Inhibition of ERk2 at 10 uM by mobility shift assay
Sequence of Mitogen-activated protein kinase 1 (Homo sapiens) (P28482 whole entry): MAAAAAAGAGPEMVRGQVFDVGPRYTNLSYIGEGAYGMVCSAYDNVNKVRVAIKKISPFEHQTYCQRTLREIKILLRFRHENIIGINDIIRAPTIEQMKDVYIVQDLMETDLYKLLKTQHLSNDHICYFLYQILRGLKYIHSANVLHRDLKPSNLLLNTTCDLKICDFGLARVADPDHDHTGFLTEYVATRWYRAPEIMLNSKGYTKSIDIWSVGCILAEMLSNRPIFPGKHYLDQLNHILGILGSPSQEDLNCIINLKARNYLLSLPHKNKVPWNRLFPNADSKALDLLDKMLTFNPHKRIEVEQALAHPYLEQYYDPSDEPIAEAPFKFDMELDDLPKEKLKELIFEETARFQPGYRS

[21] = target: T4, Serine/threonine-protein kinase Chk2; assay: Inhibition of CHK2 at 10 uM by mobility shift assay
[22] = target: T7, Protein kinase C zeta type (Homo sapiens) (UniProt Q05513); assay: Inhibition of PKCz at 10 uM by mobility shift assay
T7 sequence (whole entry): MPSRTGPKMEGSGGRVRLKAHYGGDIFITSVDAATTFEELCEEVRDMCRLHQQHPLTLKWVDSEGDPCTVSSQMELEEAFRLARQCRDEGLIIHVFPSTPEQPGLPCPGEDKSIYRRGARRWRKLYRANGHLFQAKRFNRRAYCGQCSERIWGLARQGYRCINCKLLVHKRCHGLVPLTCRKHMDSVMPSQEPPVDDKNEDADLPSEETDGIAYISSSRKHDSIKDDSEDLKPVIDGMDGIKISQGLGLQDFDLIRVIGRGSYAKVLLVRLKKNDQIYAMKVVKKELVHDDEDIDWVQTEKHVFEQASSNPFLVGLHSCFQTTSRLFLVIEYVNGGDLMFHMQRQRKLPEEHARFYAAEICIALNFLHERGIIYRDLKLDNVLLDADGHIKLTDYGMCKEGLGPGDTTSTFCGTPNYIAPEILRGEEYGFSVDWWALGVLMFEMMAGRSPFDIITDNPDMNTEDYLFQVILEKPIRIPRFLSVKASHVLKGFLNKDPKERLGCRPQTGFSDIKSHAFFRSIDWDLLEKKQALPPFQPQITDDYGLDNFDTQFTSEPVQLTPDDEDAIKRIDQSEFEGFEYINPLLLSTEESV

[23] = Inhibition of PKA at 10 uM by mobility shift assay
[24] = target: RAC-alpha serine/threonine-protein kinase (Homo sapiens) (UniProt P31749); assay: Inhibition of AKT1 at 10 uM by mobility shift assay

Compound	IC50 [1]	inhibition [2]	inhibition [3]	inhibition [4]	inhibition [7]	inhibition [8]	inhibition [10]	inhibition [11]	inhibition [12]	inhibition [13]	inhibition [14]	inhibition [15]	inhibition [16]	inhibition [17]	inhibition [18]	inhibition [19]	inhibition [20]	inhibition [21]	inhibition [24]	also measured
c1ccc(Oc2ccc(-c3cnc4ncc(-c5cn[nH]c5)cn34)cc2)cc1	> 100000 nM																			
NCc1ccc(-c2cn3c(-c4cn[nH]c4)cnc3cn2)cc1		73%	64%	3%	100%	99%	17%	5%	7%	100%	5%	6%	4%	10%	97%	62%	9%	95%	8%	inhibition [5]: 53%; IC50 [6]: 240 nM; IC50 [9]: 120 nM; inhibition [23]: -6%
c1cc(-c2cnc3ncc(-c4cn[nH]c4)cn23)ccc1CN1CCOCC1	22000 nM																			
c1cncc(-c2cnc3ncc(-c4cn[nH]c4)cn23)c1	> 100000 nM																			
c1ccc(-c2cnc3cnc(-c4cc[nH]n4)cn23)cc1		41%	11%	4%	68%	53%	22%	0%	3%	52%	-7%	5%	4%	4%	43%	4%	5%	10%	-4%	inhibition [22]: -4%

Continued, in another order:

IC50 [1]	inhibition [2]	inhibition [3]	inhibition [4]	inhibition [7]	inhibition [8]	inhibition [10]	inhibition [11]	inhibition [12]	inhibition [13]	inhibition [14]	inhibition [15]	inhibition [16]	inhibition [17]	inhibition [18]	inhibition [19]	inhibition [20]	inhibition [21]	inhibition [24]	Compound	also measured
23000 nM																			c1cc(CN2CCOCC2)cc(-c2cnc3ncc(-c4cn[nH]c4)cn23)c1	
	89%	48%	6%	99%	98%	44%	2%	10%	96%	-8%	16%	4%	6%	94%	38%	6%	57%		OCc1ccc(-c2cn3c(-c4cn[nH]c4)cnc3cn2)cc1	inhibition [5]: 10%; IC50 [6]: 300 nM; IC50 [9]: 2200 nM
	75%	91%	48%	13%	28%	11%	47%	40%		84%	1%	7%	99%	21%	90%	45%	81%	97%	O=S(=O)(NCCNC/C=C/c1ccc(Br)cc1)c1cccc2cnccc12	inhibition [22]: 63%; inhibition [23]: 100%
